Columns and labels:
ST3Gal4 (human α2-3ST) = target: T1, ST3Gal4 (human α2-3ST) (Homo sapiens, UniProt Q11206); assay: transfer to Lec2 cell surface, ECL lectin flow cytometry; biotin-azide / streptavidin detection; format: cell-based; conditions: added recombinant enzyme; acceptor N-glycan LacNAc on Lec2 CHO cells; 37 °C, 1 h
T1 construct: recombinant glycosyltransferase
T1 sequence (Q11206 27-333 limits assumed): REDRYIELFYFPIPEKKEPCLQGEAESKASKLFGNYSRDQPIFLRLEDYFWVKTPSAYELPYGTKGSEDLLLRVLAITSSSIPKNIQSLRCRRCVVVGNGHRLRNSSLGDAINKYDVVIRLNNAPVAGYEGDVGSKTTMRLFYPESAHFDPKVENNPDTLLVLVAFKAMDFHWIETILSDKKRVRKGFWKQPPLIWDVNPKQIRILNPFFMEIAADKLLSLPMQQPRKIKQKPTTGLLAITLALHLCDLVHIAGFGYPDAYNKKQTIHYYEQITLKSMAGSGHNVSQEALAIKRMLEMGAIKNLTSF

ST6Gal1 (rat α2-6ST) = target: T2, ST6Gal1 (rat α2-6ST) (Rattus norvegicus, UniProt P13721); assay: as above; format: cell-based; conditions: added recombinant enzyme; acceptor N-glycan LacNAc on Lec2 CHO cells; 37 °C, 1 h
T2 construct: recombinant glycosyltransferase
T2 sequence (P13721 27-403 limits assumed): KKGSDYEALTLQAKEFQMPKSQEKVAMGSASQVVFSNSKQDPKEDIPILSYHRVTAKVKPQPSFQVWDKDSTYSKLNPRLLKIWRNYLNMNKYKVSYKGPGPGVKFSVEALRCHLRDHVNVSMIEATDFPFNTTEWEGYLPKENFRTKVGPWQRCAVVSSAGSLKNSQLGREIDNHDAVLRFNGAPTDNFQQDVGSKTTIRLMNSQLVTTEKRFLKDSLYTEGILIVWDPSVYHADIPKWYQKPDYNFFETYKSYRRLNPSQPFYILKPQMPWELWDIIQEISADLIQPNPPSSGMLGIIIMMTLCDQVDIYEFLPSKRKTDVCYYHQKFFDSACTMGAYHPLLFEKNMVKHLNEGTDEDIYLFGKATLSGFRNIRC

For C#CCOC(=O)N[C@H]1[C@H]([C@H](O)[C@H](O)CO)O[C@](OP(=O)(O)OC[C@H]2O[C@@H](n3ccc(N)nc3=O)[C@H](O)[C@@H]2O)(C(=O)O)C[C@@H]1O [compound 7, CMP-SiaPoc], the “transfer to Lec2 cell surface, ECL lectin flow cytometry; biotin-azide / strepta” value (ST3Gal4 (human α2-3ST)) was “Upon sialylation by ST3Gal4 and ST6Gal1, Lec2 CHO cells showed a reduction in ECL binding” and the “transfer to Lec2 cell surface, ECL lectin flow cytometry; biotin-azide / strepta” value (ST6Gal1 (rat α2-6ST)) was “Upon sialylation by ST3Gal4 and ST6Gal1, Lec2 CHO cells showed a reduction in ECL binding”.
